In patent publication US7589123B2, “Chemical compounds” (Phytopharm PLC, priority 2006, dated 2009):

How the values were obtained:
[1] = test system: histamine-induced contractions in guinea pig ileum; assay: Inhibition of histamine-induced contractions in guinea pig ileum (Assay 3); conditions: Cavia porcellus, histamine 1.7 μM, read-out: Inhibition of histamine-induced contraction (%)
Summary of the method: (§1)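 Isolated male guinea pig ileum strips in Krebs at 32° C, pH 7.4, 1 g resting tension, isotonic recording. Contraction to test compound (3 and 30 μM) alone recorded, then inhibition of responses to histamine 1.7 μM or 5-HT 2.6 μM (~EC60-70, 5 min) measured in its continued presence.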

[2] = test system: 5-HT-induced contractions in guinea pig ileum; assay: Inhibition of 5-HT-induced contractions in guinea pig ileum (Assay 3); conditions: Cavia porcellus, 5-HT 2.6 μM, read-out: Inhibition of 5-HT-induced contraction (%)
Summary of the method: as §1

[3] = test system: α-smooth muscle actin (α-SMA) mRNA; assay: Anti-remodelling activity in human lung fibroblasts (HFL1): TGFβ-induced α-SMA mRNA (Assay 4); assay type: cell-based; conditions: Homo sapiens, HFL1 cells, TGFβ 10 ng/ml, 24 h, read-out: Inhibition of α-SMA mRNA synthesis (%)
Summary of the method: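 Real-time RT-PCR of α-SMA mRNA, GAPDH as reference, measured after 24 h exposure of low-serum-primed HFL1 cells to 10 ng/ml TGFβ with test compounds (3 and 30 μM) in 10% FBS medium. Readout is inhibition of TGFβ-driven α-SMA mRNA overexpression.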

[4] = test system: IL-1α-induced PGE2 release; assay: IL-1α-induced PGE2 release in human diploid lung fibroblasts (WI-38) (Assay 5); assay type: cell-based; conditions: Homo sapiens, WI-38 cells, IL-1α 1 nM, overnight
Summary of the method: (§2)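 WI-38 fibroblasts stimulated overnight at 37 °C with 1 nM IL-1α plus test compound at 3 and 30 μM in MEM with 10% FBS, pH 7.3; released PGE2 in supernatant quantified by radioimmunoassay as percent inhibition. Viability then checked by Alamar Blue, 4 h at 37 °C, fluorescence ex 530/em 590 nm.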

[5] = test system: WI-38 cells; assay: Viability of WI-38 cells, Alamar Blue (Assay 5); assay type: cell-based, human
Summary of the method: as §2

[6] = target: T1, 5-lipoxygenase (Homo sapiens, UniProt P09917); assay: 5-lipoxygenase activity (LTB4) in human peripheral blood mononuclear leukocytes (Assay 6); assay type: cell-based; conditions: human PBMLs, A23187 30 μM, read-out: Inhibition of 5-LO (%)
T1 construct: endogenous in cells; host or cells: human peripheral blood mononuclear leukocytes (PBMLs)
T1 sequence (P09917 1-674): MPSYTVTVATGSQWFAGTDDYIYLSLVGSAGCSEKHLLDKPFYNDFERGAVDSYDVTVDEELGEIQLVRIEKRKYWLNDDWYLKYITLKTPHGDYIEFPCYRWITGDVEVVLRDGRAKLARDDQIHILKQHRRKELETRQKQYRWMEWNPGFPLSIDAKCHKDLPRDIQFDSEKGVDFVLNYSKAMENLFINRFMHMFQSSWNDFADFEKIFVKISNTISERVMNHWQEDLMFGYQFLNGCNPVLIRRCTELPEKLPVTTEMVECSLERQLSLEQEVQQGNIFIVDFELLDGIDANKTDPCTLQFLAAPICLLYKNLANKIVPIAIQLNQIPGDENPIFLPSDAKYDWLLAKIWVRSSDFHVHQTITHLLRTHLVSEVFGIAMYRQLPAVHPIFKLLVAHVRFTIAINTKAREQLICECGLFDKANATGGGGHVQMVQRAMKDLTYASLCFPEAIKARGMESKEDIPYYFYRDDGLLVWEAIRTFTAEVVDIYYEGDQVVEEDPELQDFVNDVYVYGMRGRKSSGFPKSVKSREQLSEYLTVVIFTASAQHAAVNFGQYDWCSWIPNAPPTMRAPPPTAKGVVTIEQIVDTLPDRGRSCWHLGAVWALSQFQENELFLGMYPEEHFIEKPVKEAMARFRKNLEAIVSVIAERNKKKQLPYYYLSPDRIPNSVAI
Summary of the method: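 Human PBMLs (5×10^6 cells, Ficoll-isolated) stimulated with 30 μM A23187 plus compound at 3 or 30 μM or 0.1% DMSO in HBSS pH 7.4, 37° C., 15 min. After NaOH neutralisation and centrifugation, supernatant LTB4 measured by enzyme immunoassay.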

[7] = target: TRPV1 receptor (Rattus norvegicus, UniProt O35433); assay: TRPV1 modulation in DRG neurones: CGRP release in absence and presence of capsaicin (Assay 2); assay type: cell-based; parameters: The culture used for this experiment contained sensory neurones, Schwann cells and fibroblasts; endogenous in cells; host or cells: primary rat DRG sensory neurone culture (with Schwann cells and fibroblasts); conditions: 20 min; for inhibition at 3 µM: 3 μM with capsaicin 1 μM; for Emax at 3 µM: test compound alone 3 μM; for Emax at 3 µM / Emax at 30 µM: rat DRG sensory neurones, read-out: CGRP release (% of capsaicin (1 μM) response); for Emax at 30 µM: test compound alone 30 μM
Chain of TRPV1 receptor (O35433 whole entry): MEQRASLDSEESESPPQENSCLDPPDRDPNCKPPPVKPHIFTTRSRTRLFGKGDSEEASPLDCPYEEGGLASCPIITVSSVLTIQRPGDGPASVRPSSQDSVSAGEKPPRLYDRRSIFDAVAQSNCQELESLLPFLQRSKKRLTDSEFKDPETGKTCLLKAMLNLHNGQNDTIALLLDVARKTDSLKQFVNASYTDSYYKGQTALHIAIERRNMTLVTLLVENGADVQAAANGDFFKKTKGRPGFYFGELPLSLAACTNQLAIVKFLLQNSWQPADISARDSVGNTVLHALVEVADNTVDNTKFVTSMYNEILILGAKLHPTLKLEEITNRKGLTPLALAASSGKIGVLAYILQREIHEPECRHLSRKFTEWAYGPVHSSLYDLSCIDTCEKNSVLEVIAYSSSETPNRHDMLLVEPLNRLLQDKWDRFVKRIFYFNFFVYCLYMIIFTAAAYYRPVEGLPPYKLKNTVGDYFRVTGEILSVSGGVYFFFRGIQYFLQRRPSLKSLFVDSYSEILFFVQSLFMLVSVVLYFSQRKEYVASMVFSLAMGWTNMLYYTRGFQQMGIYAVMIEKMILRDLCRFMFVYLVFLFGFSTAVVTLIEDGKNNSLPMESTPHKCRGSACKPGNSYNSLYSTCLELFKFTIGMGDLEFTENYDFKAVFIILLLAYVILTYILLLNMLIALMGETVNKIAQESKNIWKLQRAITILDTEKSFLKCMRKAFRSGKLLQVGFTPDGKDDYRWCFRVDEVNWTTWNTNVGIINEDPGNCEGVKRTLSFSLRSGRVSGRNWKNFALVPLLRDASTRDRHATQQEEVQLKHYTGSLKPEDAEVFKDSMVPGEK

[8] = −ve: inhibition, +ve: potentiation of capsaicin response, read-out: Effect of test compounds on capsaicin (1 μM)-induced CGRP release (%)
[9] = 30 μM with capsaicin 1 μM, −ve: inhibition, +ve: potentiation of capsaicin response, read-out: Effect of test compounds on capsaicin (1 μM)-induced CGRP release (%)

Row | Structure (SMILES) | inhibition at 3 µM [6] | inhibition at 30 µM [6] | inhibition at 3 µM [7, 8] | inhibition at 30 µM [7, 9] | Emax at 3 µM [7] | Emax at 30 µM [7] | percent change in capsaicin-induced CGRP release (negative = inhibition, positive = potentiation) at 30 µM [7, 9] | inhibition at 3 µM [1] | inhibition at 30 µM [1] | inhibition at 3 µM [2] | inhibition at 30 µM [2] | inhibition at 3 µM [3] | inhibition at 30 µM [3] | inhibition at 3 µM [4] | inhibition at 30 µM [4] | Decrease in cell viability (%) ([5]; 3 μM) | Decrease in cell viability (%) ([5]; 30 μM)
1 | COc1cc(CCC(=O)C(C)(C)C(=O)C(C)(C)C)ccc1O [Compound 71, 1-(4-Hydroxy-3-methoxyphenyl)-4,4,6,6-tetramethylheptane-3,5-dione] | 6% | 48% | 26% | 29% | 48% | 38% |  | 0% | 35% | 3% | 53% | -1% | 20% | 41% | 95% | −1% | 11%
2 | COc1cc(CCC(=O)CC(=O)c2ccccc2Cl)ccc1O [Compound 74, 1-(2-Chlorophenyl)-5-(4-hydroxy-3-methoxyphenyl)pentane-1,3-dione] | 60% | 98% | 15% | 6% | 54% | 75% |  | 1% | 41% | 10% | 89% | -4% | 53% | 99% | 101% | 1% | 16%
3 | COc1cc(CCC(=O)CC(=O)c2ccc(Cl)cc2C)ccc1O [Compound 76, 1-(4-Chloro-2-methylphenyl)-5-(4-hydroxy-3-methoxyphenyl)pentane-1,3-dione] | 74% | 99% | 9% | 4% | 55% | 107% |  | 9% | 81% | 26% | 72% | -1% | 94% | 99% | 101% | 4% | 26%

Continued, in another order:

Row | inhibition at 3 µM [6] | inhibition at 30 µM [6] | inhibition at 3 µM [7, 8] | inhibition at 30 µM [7, 9] | Emax at 3 µM [7] | Emax at 30 µM [7] | percent change in capsaicin-induced CGRP release (negative = inhibition, positive = potentiation) at 30 µM [7, 9] | Structure (SMILES) | inhibition at 3 µM [1] | inhibition at 30 µM [1] | inhibition at 3 µM [2] | inhibition at 30 µM [2] | inhibition at 3 µM [3] | inhibition at 30 µM [3] | inhibition at 3 µM [4] | inhibition at 30 µM [4] | Decrease in cell viability (%) ([5]; 3 μM) | Decrease in cell viability (%) ([5]; 30 μM)
4 | 61% | 97% | 44% | -24% | 68% | 118% |  | COc1cc(CCC(=O)CC(=O)c2ccc(C)cc2)ccc1O [Compound 80, 5-(4-Hydroxy-3-methoxyphenyl)-1-p-tolylpentane-1,3-dione] | 2% | 62% | 14% | 68% | 4% | 29% | 72% | 102% | 2% | 1%
5 | 64% | 97% | 25% | -22% | 45% | 104% |  | COc1cc(CCC(=O)C(C)(C)C(=O)c2ccc(C)cc2)ccc1O [Compound 81, 5-(4-Hydroxy-3-methoxyphenyl)-2,2-dimethyl-1-p-tolylpentane-1,3-dione] | 22% | 94% | 21% | 95% | -2% | 55% | 62% | 101% | 3% | −7%
6 | 48% | 97% | 4% | 27% | 53% | 58% |  | COc1cc(CCC(=O)CC(=O)c2ccc(C#N)cc2)ccc1O [Compound 82, 1-(4-Cyanophenyl)-5-(4-hydroxy-3-methoxyphenyl)pentane-1,3-dione] | 12% | 20% | 13% | 83% | -3% | 39% | 78% | 102% | −4% | 6%
7 | 52% | 99% | 11% |  | 66% | 144% | 0% | COc1cc(CCC(=O)CC(=O)c2ccc(C(C)(C)C)cc2)ccc1O [Compound 83, 1-(4-tert-Butylphenyl)-5-(4-hydroxy-3-methoxyphenyl)pentane-1,3-dione] | 16% | 17% | 4% | 11% | -2% | 86% | 86% | 102% | 4% | 31%
8 | 77% | 98% | 32% | 26% | 54% | 74% |  | COc1cc(CCC(=O)CC(=O)c2ccccc2C)ccc1O [Compound 84, 5-(4-Hydroxy-3-methoxyphenyl)-1-o-tolylpentane-1,3-dione] | 19% | 66% | 22% | 100% | 6% | 65% | 101% | 102% | 3% | 12%
